{"source": "patent US20100069292A1", "about": "“INSULIN WITH A BASAL RELEASE PROFILE” (Biodel, Inc., priority 2008, published 2010)", "origin": "cited, not measured here", "key": {"[1]": {"details": "in vivo"}, "[2]": {"details": "patients, compared with NPH insulin"}}, "data": [{"substance": "insulin glargine", "values": [{"measurement": "duration of blood glucose lowering after injection", "setting": "[1]", "result": "up to 24 hours"}, {"measurement": "risk of low blood glucose (hypoglycemia)", "setting": "[2]", "result": "much lower risk of low blood glucose (hypoglycemia) than the patients who took NPH insulin"}]}]}
